For series [1], the system named is immortalized human breast epithelial cells. The conditions noted are these: cited from earlier work.
Another series has as its system MMR defective cell lines. Conditions: cited from earlier work.
The next series relates to MMR activity. Conditions: in vitro assays; cited from earlier work.
The subject of a further series is H36pCAR-OF cell line. Kind of series: H36pCAR-OF screening assay (MMR-sensitive β-galactosidase reporter). It is filed as cell-based, murine.
The test system of series [2] is Arabidopsis thaliana. Kind of series: Toxicity curve of DMA and EMS on Arabidopsis seeds (root and shoot formation). Format: in vivo. The protocol: Briefly, AT seeds were sterilized with straight commercial bleach and 100 seeds were plated in 100mm Murashige and Skoog (MS) phytagar (Life Technology) plates with increasing amounts of DMA (ranging from 100µm to 50mM). A similar amount of seeds were plated on MS phytagar only or in MS phytagar with increasing amounts of EMS (100µM to 50mM), a mutagen commonly used to mutate AT seeds (McCallum, C.M.et al. (2000) Nat. Biotechnol.18:455-457). Plates were grown in a temperature-controlled, fluorescent-lighted humidifier (Percival Growth Chamber) for 10 days. After 10 days, seeds were counted to determine toxicity levels for each compound. […] Plantlets that were identical to untreated seeds were scored healthy. Seeds with stunted root or shoot formation were scored intermediate (inter). Non-germinated seeds were scored dead. Table 2: Toxicity curve of DMA and EMS on Arabidopsis (per […])

Series [3] deals with Pichia yeast containing a pGUS-OF reporter system. The series is described as follows: Pichia yeast pGUS-OF reporter assay for MMR blockade. The conditions noted are these: 300 µM, 48 hours. Format: cell-based. On the procedure:
Briefly, the GUS-OF and GUS-IF gene, which contains a polyA repeat at the N-terminus of the protein was subcloned from the pCR=IF-GUS and pCR-OF-GUS plasmids into the EcoRI site of the pGP vector, which is a consitutively expressed yeast vector containing a zeocin resistance gene as selectable marker. pGP-GUS-IF and pGP-GUS-OF vectors were electroporated into competent Pichia cells using standard methods known by those skilled in the art. Cells were plated on YPD agar (10g/L yeast extract; 20 g/L peptone; 2% glucose; 1.5% bactoagar) plates containing 100 µg/ml zeocin. Recombinant yeast are then analyzed for GUS expression/function by replica plating on YPD agar plates containing 100 µg/ml zeocin plus 1 mg/ml X-glu (5-bromo-4-chloro-3-indoyl-beta-D-glucuronide sodium salt) and grown at 30°C for 16 hours. […] None of the yeast containing the GUS-OF turned blue in the presence of the X-glu substrate under normal growth conditions.
After incubation, yeast were plated on YPD-ZEO-X-GLU plates and grown at 30°C for 16 hours.
(In general: A reporter such as luciferase makes a cellular process visible.)

The subject of series [4] is Arabidopsis thaliana. The series is described as follows: New phenotypes in offspring of chemically treated Arabidopsis plants. Format: in vivo. On the procedure: Next, 50 seeds were plated in two 150mm dishes containing 2mM DMA, 250 µM EMS or no drug. Seeds were grown for 10 days and then 10 plants from each plate were transferred to soil. All plants appeared to be similar in color and height. Plants were grown at room temperature with daily cycles of 18 hr light and 6 hr dark. After 45 days seeds are harvested from siliques and stored in a desiccator at 4°C for 72 hours. Seeds are then sterilized and 100 seeds from each plant is sown directly into water-saturated soil and grown at room temperature with daily cycles of 18 hr light and 6 hr dark. […] These 7 altered plants were light green in color and appeared to grow slower. […] DMA-exposed plants produced offspring that were yellow in appearance in contrast to dark green, which is always found in wild-type plants. In addition, the yellow plants were also shorter. After 30 days, most wild-type plants produced flowers and siliques, while the 7 mutants just began flowering. After 45 days, control plants were harvested while mutant plants were harvested 10 to 15 days later.

For series [5] the following is noted: at high concentrations; cited from earlier work.
The test system of series [6] is human HEK293 cells. The series is described as follows: Microsatellite instability of endogenous BAT26 marker in 293 cells. It is filed as cell-based. Conditions: 250 µM DMA. The protocol:
Briefly, […] were grown in control medium or 250 µM DMA, a concentration that is found to be non-toxic, for 14 to 17 days. Cells are then harvested and genomic DNA isolated using the salting out method (Nicolaides, N.C. et al. (1991) Mol. Cell. Biol. 11 :6166-6176.).
Various amounts of test DNAs from HCT116 (a human colon epithelial cell line) and 293 were first used to determine the sensitivity of our microsatellite test. The BAT26 alleles are known to be heterogeneous between these two cell lines and the products migrate at different molecular weights (Nicolaides personal observation). DNAs were diluted by limiting dilution to determine the level of sensitivity of the assay. DNAs were PCR amplified using the BAT26F: 5'-[…]-3' (SEQ ID NO:43) and the BAT26R: 5'-[…]-3' (SEQ ID NO:44) primers in buffers as described (Nicolaides, N.C. et al. (1995) Genomics 30:195-206). Briefly 1 pg to 100 ngs of DNA were amplified using the following conditions: 94°C for 30 sec, 58°C for 30 sec, 72°C for 30 sec for 30 cycles. […]
To measure for microsatellite stability in 293 cells grown with or without DMA, 0.1 ngs of DNA from DMA-treated or control 293 cells were amplified using the reaction conditions above. […] Fifty bacterial colonies were analyzed for BAT26 structure by directly adding an aliquot of live bacteria to the PCR mix. […]

For series [7], the system named is human HEK293 cells. The series is described as follows: Toxicity in HEK293 cells. Format: cell-based. The conditions noted are these: 250 µM, 293 cells.
The conditions of series [8]: rat-liver microsomal preparations; cited from earlier work.
Where [9] appears, read: Arabidopsis thaliana, in vivo, 10 days, 0.1 mM.
The mark [10] stands for this setting: Arabidopsis thaliana, in vivo, 10 days, 0.5 mM.
The mark [11] stands for this setting: Arabidopsis thaliana, in vivo, 10 days, 1 mM.
Where [12] appears, read: Arabidopsis thaliana, in vivo, 10 days, 2.5 mM.
Setting [13] is: Arabidopsis thaliana, in vivo, 10 days, 5 mM.
Where [14] appears, read: Arabidopsis thaliana, in vivo, 10 days, 10 mM.
[15] abbreviates: Arabidopsis thaliana, in vivo, 10 days, 12.5 mM.
Where [16] appears, read: Arabidopsis thaliana, in vivo, 10 days, 25 mM.
Where [17] appears, read: Arabidopsis thaliana, in vivo, 10 days, 50 mM.
[18] abbreviates: concentration 0.5 (mM), 10 days.
Setting [19] is: concentration 1.0 (mM), 10 days.
The mark [20] stands for this setting: concentration 2.5 (mM), 10 days.
The mark [21] stands for this setting: concentration 5.0 (mM), 10 days.
Where [22] appears, read: concentration 12.5 (mM), 10 days.

With `Cc1c2ccccc2c(C)c2c1ccc1ccccc12` [7,12-dimethylbenz[a]anthracene], in series [1], the “effect on MMR activity” value is listed as “MMR activity might have been blocked”.

As for `COc1ccc2nc3cc(Cl)ccc3c(NCCCNCCCl)c2c1` [ICR191], the “mutation rates in MMR defective cell lines” value in the series on MMR defective cell lines is listed as “produce enhanced mutation rates in already MMR defective cell lines”.

For `Nc1ncnc2c1ncn2[C@@H]1O[C@H](COP(=O)(O)OP(=O)(O)OP(O)(O)=S)[C@@H](O)[C@H]1O` [ATP[gamma]S], in the series with MMR activity, the “effect on MMR activity” value was “block the MMR activity”.

Regarding `c1ccc2c(c1)cc1ccc3cccc4ccc2c1c34` [benzo [a]pyrene], the “effect on MMR activity” value in series [1] is given as “MMR activity might have been blocked”.

On to `CCOS(C)(=O)=O` [EMS, ethyl methanesulfonate], for which, in the series on H36pCAR-OF cell line, the “MI and/or shifting of the polynucleotide tract in the pCAR-OF reporter (β-galactosidase positive cells)” value is listed as “did not result in MI”. Moreover, the “concentration at which toxicity occurs” value in the series with Arabidopsis thaliana [2] (Arabidopsis thaliana, in vivo, 10 days) was determined as 250 µm. Besides, the Healthy is 100 per 100 cells in the series on Arabidopsis thaliana [2] (setting [9]); 45 per 100 cells in the series with Arabidopsis thaliana [2] (setting [10]); 25 per 100 cells in the series with Arabidopsis thaliana [2] (setting [11]); 0 per 100 cells in the series on Arabidopsis thaliana [2] (setting [12]); 0 per 100 cells in the series on Arabidopsis thaliana [2] (setting [13]); 0 per 100 cells in the series with Arabidopsis thaliana [2] (setting [14]). For the same compound, the Healthy in the series with Arabidopsis thaliana [2] (setting [15]), in the series on Arabidopsis thaliana [2] (setting [16]) and in the series with Arabidopsis thaliana [2] (setting [17]) was 0 per 100 cells in each case. Also, the Inter in the series with Arabidopsis thaliana [2] (setting [9]) is given as 0 per 100 cells; in the series with Arabidopsis thaliana [2] (setting [10]) it was 54 per 100 cells; in the series with Arabidopsis thaliana [2] (setting [11]) it was 75 per 100 cells; in the series with Arabidopsis thaliana [2] (setting [12]), 0 per 100 cells; in the series with Arabidopsis thaliana [2] (setting [13]) it was 0 per 100 cells; with Arabidopsis thaliana [2] (setting [14]) it was 0 per 100 cells. For the same compound, the Inter in the series with Arabidopsis thaliana [2] (setting [15]), in the series on Arabidopsis thaliana [2] (setting [16]) and in the series on Arabidopsis thaliana [2] (setting [17]) was 0 per 100 cells each time. Moreover, the “blue subclones (GUS activity) on YPD-ZEO-X-GLU plates” value in series [3] is given as “none are seen”. Moreover, the phenotypically distinct plants in the series with Arabidopsis thaliana [4] (150 offspring at day 10 of plants grown from seeds plated in 250 µM EMS) is given as “no phenotypic difference was observed”.

Consider `Cc1c2ccccc2c(C)c2ccccc12` [DMA, 9,10-dimethylanthracene], for which, in [5], the mutagenicity result was “acts as a potent weak mutagen”. The “BAT26 alleles (microsatellite instability)” value in the series on human HEK293 cells [6] (14 to 17 days, PCR and 12% PAGE) is given as “showed the presence of an altered allele”. Besides, the “BAT26 polyA repeat length by sequence analysis” value with human HEK293 cells [6] (five clones sequenced, control homozygous 26nt polyA) was “multiple alleles ranging from the wild-type with 26 polyA repeat to shorter alleles (24 polyA repeat) and larger alleles (28 polyA repeat)”. The toxicity entry in the series on human HEK293 cells [7] is listed as “non-toxic”. Moreover, the “MI and/or shifting of the polynucleotide tract in the pCAR-OF reporter (β-galactosidase positive cells)” value in the series with H36pCAR-OF cell line was “shifting the pCAR-OF reporter plasmid”. The Dead is 0 per 100 seeds with Arabidopsis thaliana [2] (concentration 0.1 (mM), 10 days, non-germinated seeds scored dead); 0 per 100 seeds in the series on Arabidopsis thaliana [2] (setting [18]); 0 per 100 seeds with Arabidopsis thaliana [2] (setting [19]); 0 per 100 seeds in the series with Arabidopsis thaliana [2] (setting [20]); 0 per 100 seeds in the series on Arabidopsis thaliana [2] (setting [21]); 0 per 100 seeds in the series with Arabidopsis thaliana [2] (concentration 10 (mM), 10 days). Moreover, the Dead in the series on Arabidopsis thaliana [2] (setting [22]) turned out to be 0 per 100 seeds; in the series on Arabidopsis thaliana [2] (concentration 25 (mM), 10 days), 0 per 100 seeds; with Arabidopsis thaliana [2] (concentration 50 (mM), 10 days), 100 per 100 seeds. The Inter was 0 per 100 seeds with Arabidopsis thaliana [2] (concentration 0.1 (mM), 10 days, stunted root or shoot formation scored intermediate); 0 per 100 seeds in the series with Arabidopsis thaliana [2] (setting [18]); 0 per 100 seeds in the series with Arabidopsis thaliana [2] (setting [19]); 20 per 100 seeds in the series with Arabidopsis thaliana [2] (setting [20]); 15 per 100 seeds in the series on Arabidopsis thaliana [2] (setting [21]); 32 per 100 seeds with Arabidopsis thaliana [2] (concentration 10 (mM), 10 days). The Inter was determined as 85 per 100 seeds in the series with Arabidopsis thaliana [2] (setting [22]); 100 per 100 seeds with Arabidopsis thaliana [2] (concentration 25 (mM), 10 days); 0 per 100 seeds with Arabidopsis thaliana [2] (concentration 50 (mM), 10 days). The Healthy with Arabidopsis thaliana [2] (concentration 0.1 (no unit in head; mM), MS phytagar, 10 days, identical to untreated seeds) is 94 per 100 seeds; in the series with Arabidopsis thaliana [2] (concentration 0.5 (mM), MS phytagar, 10 days), 99 per 100 seeds; in the series with Arabidopsis thaliana [2] (concentration 1.0 (mM), MS phytagar, 10 days), 99 per 100 seeds; with Arabidopsis thaliana [2] (concentration 2.5 (mM), MS phytagar, 10 days) it was 80 per 100 seeds; in the series on Arabidopsis thaliana [2] (concentration 5.0 (mM), MS phytagar, 10 days), 85 per 100 seeds; with Arabidopsis thaliana [2] (concentration 10 (mM), MS phytagar, 10 days) it was 65 per 100 seeds. In addition, the Healthy with Arabidopsis thaliana [2] (concentration 12.5 (mM), MS phytagar, 10 days) is on record as 0 per 100 seeds; with Arabidopsis thaliana [2] (concentration 25 (mM), MS phytagar, 10 days) it was 0 per 100 seeds; in the series on Arabidopsis thaliana [2] (concentration 50 (mM), MS phytagar, 10 days) it was 0 per 100 seeds. Also, the “concentration at which toxicity occurs” value in the series with Arabidopsis thaliana [2] (continuous culture, Arabidopsis seeds) stood at 10 mM. In addition, the “blue subclones (GUS activity) on YPD-ZEO-X-GLU plates” value in [3] is “a subset of yeast expressing GUS-OF contain blue subclones”. Moreover, the metabolites formed result in series [8] was “converted to 9-Hydroxymethyl-10-methylanthracene (9-OHMeMA) and 9,10-dihydroxymethyl-anthracene (9,10-DiOHMeA)”. In addition, the phenotypically distinct plants in the series with Arabidopsis thaliana [4] (offspring at day 10 of plants grown from seeds plated in 2mM DMA) was 7 out of 118.

Turning to `Nc1ncnc2c1ncn2[C@@H]1O[C@H](COP(=O)(O)OP(=O)(O)NP(=O)(O)O)[C@@H](O)[C@H]1O` [AMP-PNP], the “effect on MMR activity” value in the series on MMR activity is “block the MMR activity”.

The record behind these values is patent publication EP1351565B1, “CHEMICAL INHIBITORS OF MISMATCH REPAIR” (Morphotek, Inc., priority 2001, dated 2002).
